US11771738B2 (Zoetis Services LLC, priority 2018, dated 2023)
Read-outs that look alike come from different tables or passages of the source.

Experiments:
Format in all cases: cell-based
[1] = system: microfilariae of Dirofilaria immitis; assay: Dirofilaria immitis, Microfilaria (DiMf) In Vitro Assay; settings: Dirofilaria immitis, 72 h, read-out: DiMf MED, Minimum Effective Dose, D. immitis microfilariae motility, in vitro
[2] = system: third stage larvae of Haemonchus contortus; assay: Haemonchus contortus, Larvae Stage 3 (HcL3) In Vitro Assay; settings: Haemonchus contortus, 96 h
D. immitis L4 larvae = assay: Dirofilaria immitis, L4 Stage (DiL4) In Vitro Assay; settings: for minimal effective concentration: Dirofilaria immitis, 72 h, read-out: DiL4 MED, Minimum Effective Dose, D. immitis L4 larvae motility, in vitro; for DiMf/DiL4: larval stage selectivity, ratio of DiMf MED to DiL4 MED
[3] = read-out: HcL3 MED, Haemonchus contortus third stage larvae in vitro, class mark appended to the Ex # in Table 3
[4] = read-out: HcL3 MED, Minimum Effective Dose, H. contortus third stage larvae, approximately 96 hours
[5] = read-out: HcL3 MED, approximately 96 hours incubation, multiple-resistant field isolate

SMILES	minimal effective concentration [1]	minimal effective concentration [2, 3]	minimal effective concentration [2, 4]	minimal effective concentration [2, 5]	minimal effective concentration (D. immitis L4 larvae)	DiMf/DiL4 (D. immitis L4 larvae)
Cc1noc(C)c1Cc1ccc(C[C@H]2OC(=O)[C@H](CC(C)C)N(C)C(=O)[C@@H](C)OC(=O)[C@H](CC(C)C)N(C)C(=O)[C@@H](Cc3ccc(Cc4c(C)noc4C)cc3)OC(=O)[C@H](CC(C)C)N(C)C(=O)[C@@H](C)OC(=O)[C@H](CC(C)C)N(C)C2=O)cc1 [Example 3-21, (3S,6R,9S,12R,15S,18R,21S,24R)-6,18-bis(4-((3,5-dimethylisoxazol-4-yl)methyl)benzyl)-3,9,15,21-tetraisobutyl-4,10,12,16,22,24-hexamethyl-1,7,13,19-tetraoxa-4,10,16,22-tetraazacyclotetracosan-2,5,8,11,14,17,20,23-octaone]	0.0001 µM	< 1 µM	0.3 µM	≤ 1 µM	< 3e-05 µM	>3.3
CC(C)C[C@H]1C(=O)O[C@H](Cc2ccc(Cc3ccnn3C)cc2)C(=O)N(C)[C@@H](CC(C)C)C(=O)O[C@H](C)C(=O)N(C)[C@@H](CC(C)C)C(=O)O[C@H](Cc2ccc(Cc3ccnn3C)cc2)C(=O)N(C)[C@@H](CC(C)C)C(=O)O[C@H](C)C(=O)N1C [Example 3-24, (3S,6R,9S,12R,15S,18R,21S,24R)-3,9,15,21-tetraisobutyl-4,6,10,16,18,22-hexamethyl-12,24-bis(4-((1-methyl-1H-pyrazol-5-yl)methyl)benzyl)-1,7,13,19-tetraoxa-4,10,16,22-tetraazacyclotetracosan-2,5,8,11,14,17,20,23-octaone]	0.0001 µM	< 1 µM	1 µM	≤ 1 µM	3e-05 µM	3.3
COc1ncccc1Cc1ccc(C[C@H]2OC(=O)[C@H](CC(C)C)N(C)C(=O)[C@@H](C)OC(=O)[C@H](CC(C)C)N(C)C(=O)[C@@H](Cc3ccc(Cc4cccnc4OC)cc3)OC(=O)[C@H](CC(C)C)N(C)C(=O)[C@@H](C)OC(=O)[C@H](CC(C)C)N(C)C2=O)cc1 [Example 3-31, (3S,6R,9S,12R,15S,18R,21S,24R)-3,9,15,21-tetraisobutyl-6,18-bis(4-((2-methoxypyridin-3-yl)methyl)benzyl)-4,10,12,16,22,24-hexamethyl-1,7,13,19-tetraoxa-4,10,16,22-tetraazacyclotetracosan-2,5,8,11,14,17,20,23-octaone]	0.005 µM	1 to 3.3 µM	2.4 µM		0.0002 µM	25
Cc1ccsc1Cc1ccc(C[C@H]2OC(=O)[C@H](CC(C)C)N(C)C(=O)[C@@H](C)OC(=O)[C@H](CC(C)C)N(C)C(=O)[C@@H](Cc3ccc(Cc4sccc4C)cc3)OC(=O)[C@H](CC(C)C)N(C)C(=O)[C@@H](C)OC(=O)[C@H](CC(C)C)N(C)C2=O)cc1 [Example 3-44, (3S,6R,9S,12R,15S,18R,21S,24R)-3,9,15,21-tetraisobutyl-4,6,10,16,18,22-hexamethyl-12,24-bis(4-((3-methylthiophen-2-yl)methyl)benzyl)-1,7,13,19-tetraoxa-4,10,16,22-tetraazacyclotetracosan-2,5,8,11,14,17,20,23-octaone]	0.1 µM	1 to 3.3 µM	1.8 µM		0.0001 µM	1000
Cc1cc(Cc2ccc(C[C@H]3OC(=O)[C@H](CC(C)C)N(C)C(=O)[C@@H](C)OC(=O)[C@H](CC(C)C)N(C)C(=O)[C@@H](Cc4ccc(Cc5cc(C)nn5C)cc4)OC(=O)[C@H](CC(C)C)N(C)C(=O)[C@@H](C)OC(=O)[C@H](CC(C)C)N(C)C3=O)cc2)n(C)n1 [Example 3-49, (3S,6R,9S,12R,15S,18R,21S,24R)-6,18-bis(4-((1,3-dimethyl-1H-pyrazol-5-yl)methyl)benzyl)-3,9,15,21-tetraisobutyl-4,10,12,16,22,24-hexamethyl-1,7,13,19-tetraoxa-4,10,16,22-tetraazacyclotetracosan-2,5,8,11,14,17,20,23-octaone]	0.005 µM	1 to 3.3 µM	3.3 µM		0.001 µM	5
CC(C)C[C@H]1C(=O)O[C@H](Cc2ccc(Cc3occc3C#N)cc2)C(=O)N(C)[C@@H](CC(C)C)C(=O)O[C@H](C)C(=O)N(C)[C@@H](CC(C)C)C(=O)O[C@H](Cc2ccc(Cc3occc3C#N)cc2)C(=O)N(C)[C@@H](CC(C)C)C(=O)O[C@H](C)C(=O)N1C [Example 3-50, 2,2′-(((((2R,5S,8R,11 S,14R,17S,20R,23S)-5,11,17,23-tetraisobutyl-4,8,10,16,20,22-hexamethyl-3,6,9,12,15,18,21,24-octaoxo-1,7,13,19-tetraoxa-4,10,16,22-tetraazacyclotetracosane-2,14-diyl)bis(methylene))bis(4,1-phenylene))bis(methylene))bis(furan-3-carbonitrile)]	0.001 µM	< 1 µM	0.3 µM	≤ 1 µM	0.0001 µM	10
CC(C)C[C@H]1C(=O)O[C@H](Cc2ccc(Cc3ccsc3)cc2)C(=O)N(C)[C@@H](CC(C)C)C(=O)O[C@H](C)C(=O)N(C)[C@@H](CC(C)C)C(=O)O[C@H](Cc2ccc(Cc3ccsc3)cc2)C(=O)N(C)[C@@H](CC(C)C)C(=O)O[C@H](C)C(=O)N1C [Example 3-56, (3S,6R,9S,12R,15S,18R,21S,24R)-3,9,15,21-tetraisobutyl-4,6,10,16,18,22-hexamethyl-12,24-bis(4-(thiophen-3-ylmethyl)benzyl)-1,7,13,19-tetraoxa-4,10,16,22-tetraazacyclotetracosan-2,5,8,11,14,17,20,23-octaone]	0.1 µM	< 1 µM	0.5 µM	≤ 1 µM	0.0005 µM	200
CC(C)C[C@H]1C(=O)O[C@H](Cc2ccc(Cc3cocn3)cc2)C(=O)N(C)[C@@H](CC(C)C)C(=O)O[C@H](C)C(=O)N(C)[C@@H](CC(C)C)C(=O)O[C@H](Cc2ccc(Cc3cocn3)cc2)C(=O)N(C)[C@@H](CC(C)C)C(=O)O[C@H](C)C(=O)N1C [Example 3-57, (3S,6R,9S,12R,15S,18R,21S,24R)-3,9,15,21-tetraisobutyl-4,6,10,16,18,22-hexamethyl-12,24-bis(4-(oxazol-4-ylmethyl)benzyl)-1,7,13,19-tetraoxa-4,10,16,22-tetraazacyclotetracosan-2,5,8,11,14,17,20,23-octaone]	0.0003 µM	< 1 µM	1 µM	≤ 1 µM	0.0003 µM	1
CC(C)C[C@H]1C(=O)O[C@H](Cc2ccc(Cc3coc(C#N)c3)cc2)C(=O)N(C)[C@@H](CC(C)C)C(=O)O[C@H](C)C(=O)N(C)[C@@H](CC(C)C)C(=O)O[C@H](Cc2ccc(Cc3coc(C#N)c3)cc2)C(=O)N(C)[C@@H](CC(C)C)C(=O)O[C@H](C)C(=O)N1C [Example 3-60, 4,4′-(((((2R,5S,8R,11 S,14R,17S,20R,23S)-5,11,17,23-tetraisobutyl-4,8,10,16,20,22-hexamethyl-3,6,9,12,15,18,21,24-octaoxo-1,7,13,19-tetraoxa-4,10,16,22-tetraazacyclotetracosane-2,14-diyl)bis(methylene))bis(4,1-phenylene))bis(methylene))bis(furan-2-carbonitrile)]	0.05 µM		> 10 µM		0.001 µM	50
COc1cccc(Cc2ccc(C[C@H]3OC(=O)[C@H](CC(C)C)N(C)C(=O)[C@@H](C)OC(=O)[C@H](CC(C)C)N(C)C(=O)[C@@H](Cc4ccc(Cc5cccc(OC)n5)cc4)OC(=O)[C@H](CC(C)C)N(C)C(=O)[C@@H](C)OC(=O)[C@H](CC(C)C)N(C)C3=O)cc2)n1 [Example 3-69, (3S,6R,9S,12R,15S,18R,21S,24R)-3,9,15,21-tetraisobutyl-6,18-bis(4-((6-methoxypyridin-2-yl)methyl)benzyl)-4,10,12,16,22,24-hexamethyl-1,7,13,19-tetraoxa-4,10,16,22-tetraazacyclotetracosan-2,5,8,11,14,17,20,23-octaone]	0.03 µM	< 1 µM	0.5 µM	≤ 1 µM	0.0007 µM	42.9
CC(C)C[C@H]1C(=O)O[C@H](Cc2ccc(Cc3sccc3Cl)cc2)C(=O)N(C)[C@@H](CC(C)C)C(=O)O[C@H](C)C(=O)N(C)[C@@H](CC(C)C)C(=O)O[C@H](Cc2ccc(Cc3sccc3Cl)cc2)C(=O)N(C)[C@@H](CC(C)C)C(=O)O[C@H](C)C(=O)N1C [Example 3-87, (3S,6R,9S,12R,15S,18R,21S,24R)-6,18-bis(4-((3-chlorothiophen-2-yl)methyl)benzyl)-3,9,15,21-tetraisobutyl-4,10,12,16,22,24-hexamethyl-1,7,13,19-tetraoxa-4,10,16,22-tetraazacyclotetracosan-2,5,8,11,14,17,20,23-octaone]	0.1 µM	< 1 µM	0.3 µM	≤ 1 µM	0.0003 µM	333
